Test results reported in patent US10815230B2, “Casein kinase 1 delta inhibitor” (ELECTROPHORETICS LIMITED, priority 2015, dated 2020).
Read-outs that look alike come from different tables or passages of the source.

Columns and labels:
MEK3 = MEK3 (Homo sapiens, UniProt P46734); assay: KINOMEscan binding assay; conditions: read-out: % Ctrl @ 10000 nM
CSNK1G2 = CSNK1G2 (Homo sapiens, UniProt P78368); assay: KINOMEscan binding assay; conditions: read-out: % Ctrl @ 10000 nM
TRKC = TRKC (Homo sapiens, UniProt Q16288); assay: KINOMEscan binding assay; conditions: read-out: % Ctrl @ 10000 nM
[1] = biological target: ABL1 (F317I) phosphorylated (Homo sapiens, UniProt P00519, F317I); assay: KINOMEscan binding assay; conditions: read-out: % Ctrl @ 10000 nM
ERBB3 = ERBB3 (Homo sapiens, UniProt P21860); assay: KINOMEscan binding assay; conditions: read-out: % Ctrl @ 10000 nM
PRKCI = PRKCI (Homo sapiens, UniProt P41743); assay: KINOMEscan binding assay; conditions: read-out: % Ctrl @ 10000 nM
ERK2 = ERK2 (Homo sapiens, UniProt P28482); assay: KINOMEscan binding assay; conditions: read-out: % Ctrl @ 10000 nM
ADCK3 = ADCK3 (Homo sapiens, UniProt Q8NI60); assay: KINOMEscan binding assay; conditions: read-out: % Ctrl @ 10000 nM
CIT = CIT (Homo sapiens, UniProt O14578); assay: KINOMEscan binding assay; conditions: read-out: % Ctrl @ 10000 nM
PRKCD = PRKCD (Homo sapiens, UniProt Q05655); assay: KINOMEscan binding assay; conditions: read-out: % Ctrl @ 10000 nM
HPK1 = HPK1 (Homo sapiens, UniProt Q92918); assay: KINOMEscan binding assay; conditions: read-out: % Ctrl @ 10000 nM
JNK1 = JNK1 (Homo sapiens, UniProt P45983); assay: KINOMEscan binding assay; conditions: read-out: % Ctrl @ 10000 nM
SgK110 = SgK110 (Homo sapiens, UniProt P0C264); assay: KINOMEscan binding assay; conditions: read-out: % Ctrl @ 10000 nM
PAK1 = PAK1 (Homo sapiens, UniProt Q13153); assay: KINOMEscan binding assay; conditions: read-out: % Ctrl @ 10000 nM
[2] = biological target: JAK1 (JH1domain-catalytic) (Homo sapiens, UniProt P23458); assay: KINOMEscan binding assay; conditions: read-out: % Ctrl @ 10000 nM
YSK1 = biological target: T1, YSK1 (Homo sapiens, UniProt O00506); assay: KINOMEscan binding assay; conditions: read-out: % Ctrl @ 10000 nM
T1 construct: purchased DiscoveRx (KINOMEscan, LeadHunter Discovery services)

CAMK2B = CAMK2B (Homo sapiens, UniProt Q13554); assay: KINOMEscan binding assay; conditions: read-out: % Ctrl @ 10000 nM
ALK (C1156Y) = ALK (C1156Y) (Homo sapiens, UniProt Q9UM73, C1156Y); assay: KINOMEscan binding assay; conditions: read-out: % Ctrl @ 10000 nM
DYRK1A = DYRK1A (Homo sapiens, UniProt Q13627); assay: KINOMEscan binding assay; conditions: read-out: % Ctrl @ 10000 nM
[3] = Pharmacokinetics in male CD-1 mice; type: in vivo; conditions: for AUCex: percent of AUC0-inf that is extrapolated; for AUC(0-t): male, CD-1, mouse; for AUC(0-t) / bioavailability / Cmax / Tmax / half-life / AUC(0-inf) / clearance / Vd / CL/F / Vd/F: plasma; for bioavailability / Cmax / Tmax / half-life / AUC(0-inf) / clearance / Vd / CL/F / Vd/F: mouse; for bioavailability: read-out: F (oral bioavailability); for AUC(0-inf) / clearance / Vd / CL/F / Vd/F: predicted; for Vd: read-out: Vz; for Vd/F: read-out: Vz/F
Method: Six groups of male CD-1 mice of approximately 25-35 g (about 8 weeks of age) were dosed with Comparative compound 324 and Compound A intravenously (IV) (in 10% DMSO:90% Hydroxypropyl-β-cyclodextrin (20% aq. w/v)) or orally (PO) (in 0.5% w/v methylcelluose (aq.) according to the regimen shown in Table 6.
Intravenous doses was administered into a tail vein at a constant dose volume of 5 mL/kg to achieve a dose level of 3 mg/kg. Oral doses were administered as a single bolus dose via syringe with attached polypropylene gavage tube at a constant dose volume of 10 mL/kg to achieve dose levels of 3 mg/kg (groups 2 and 4) and 30 mg/kg (group 3 and 6).
Following dosing, blood samples were collected into individual K3EDTA tubes by cardiac puncture under terminal anaesthesia (isoflurane) from 3 animals per timepoint. Following collection animal were sacrificed by cervical dislocation. Samples were taken at 5, 15 and 30 minutes and then 1, 2, 4, 8 and 24 hours post-IV dose and 15 and 30 minutes and then 1, 2, 4, 8 and 24 hours post-OP dose.
Upon collection, blood samples were centrifuged at 10,000×g, 2 minutes at 4° C. and the resultant plasma was drawn off and stored at −20° C. for analysis by LC-MS/MS of the concentration of the compounds. The remaining blood call pellet was discarded.
Pharmacokinetic parameters were derived by non-compartmental analysis (linear/logarithmic trapezoidal) using WinNonlin (Version 4.1 or higher) software.

FLT3 = FLT3 (Homo sapiens, UniProt P36888); assay: KINOMEscan binding assay; conditions: read-out: % Ctrl @ 10000 nM
AURKA = AURKA (Homo sapiens, UniProt O14965); assay: KINOMEscan binding assay; conditions: read-out: % Ctrl @ 10000 nM
CSNK1D = CSNK1D (Homo sapiens, UniProt P48730); assay: KINOMEscan binding assay; conditions: read-out: % Ctrl @ 10000 nM
GRK4 = GRK4 (Homo sapiens, UniProt P32298); assay: KINOMEscan binding assay; conditions: read-out: % Ctrl @ 10000 nM
KIT (V559D, V654A) = KIT (V559D, V654A) (Homo sapiens, UniProt P10721, V559D/V654A); assay: KINOMEscan binding assay; conditions: read-out: % Ctrl @ 10000 nM
WNK1 = biological target: T2, WNK1 (Homo sapiens, UniProt Q9H4A3); assay: KINOMEscan binding assay; conditions: read-out: % Ctrl @ 10000 nM
T2 construct: purchased DiscoveRx (KINOMEscan, LeadHunter Discovery services)

CLK1 = CLK1 (Homo sapiens, UniProt P49759); assay: KINOMEscan binding assay; conditions: read-out: % Ctrl @ 10000 nM
NEK3 = NEK3 (Homo sapiens, UniProt P51956); assay: KINOMEscan binding assay; conditions: read-out: % Ctrl @ 10000 nM
FYN = FYN (Homo sapiens, UniProt P06241); assay: KINOMEscan binding assay; conditions: read-out: % Ctrl @ 10000 nM
[4] = iv, 3 mg/kg, IV 3 mg/kg, male CD-1 mice, read-out: AUC0-24 h
[5] = iv, 3 mg/kg, IV 3 mg/kg, male CD-1 mice, read-out: AUC0-t
[6] = po, 3 mg/kg, PO 3 mg/kg, male CD-1 mice, read-out: AUC0-24 h
[7] = po, 3 mg/kg, PO 3 mg/kg, male CD-1 mice, read-out: AUC0-t
[8] = po, 30 mg/kg, PO 30 mg/kg, male CD-1 mice, read-out: AUC0-24 h
[9] = po, 30 mg/kg, PO 30 mg/kg, male CD-1 mice, read-out: AUC0-t

Sequence of CAMK2B (Q13554 whole entry): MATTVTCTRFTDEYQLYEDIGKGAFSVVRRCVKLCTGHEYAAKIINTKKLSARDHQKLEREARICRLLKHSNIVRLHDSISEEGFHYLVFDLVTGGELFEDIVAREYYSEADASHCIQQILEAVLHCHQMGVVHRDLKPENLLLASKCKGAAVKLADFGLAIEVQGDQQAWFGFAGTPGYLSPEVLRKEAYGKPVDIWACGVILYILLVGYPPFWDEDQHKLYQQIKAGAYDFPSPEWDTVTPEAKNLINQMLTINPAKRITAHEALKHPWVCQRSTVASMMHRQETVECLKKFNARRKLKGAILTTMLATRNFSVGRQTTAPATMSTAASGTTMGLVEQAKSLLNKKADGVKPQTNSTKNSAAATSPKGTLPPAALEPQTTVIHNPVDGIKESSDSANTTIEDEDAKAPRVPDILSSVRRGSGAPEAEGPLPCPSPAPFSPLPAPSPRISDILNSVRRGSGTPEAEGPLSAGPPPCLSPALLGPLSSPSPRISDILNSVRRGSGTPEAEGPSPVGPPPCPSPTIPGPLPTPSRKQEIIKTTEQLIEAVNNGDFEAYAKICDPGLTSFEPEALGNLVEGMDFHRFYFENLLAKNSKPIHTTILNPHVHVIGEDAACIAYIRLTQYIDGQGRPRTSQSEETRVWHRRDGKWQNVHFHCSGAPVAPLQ
Sequence of JAK1 (JH1domain-catalytic) (P23458 875-1153 limits assumed): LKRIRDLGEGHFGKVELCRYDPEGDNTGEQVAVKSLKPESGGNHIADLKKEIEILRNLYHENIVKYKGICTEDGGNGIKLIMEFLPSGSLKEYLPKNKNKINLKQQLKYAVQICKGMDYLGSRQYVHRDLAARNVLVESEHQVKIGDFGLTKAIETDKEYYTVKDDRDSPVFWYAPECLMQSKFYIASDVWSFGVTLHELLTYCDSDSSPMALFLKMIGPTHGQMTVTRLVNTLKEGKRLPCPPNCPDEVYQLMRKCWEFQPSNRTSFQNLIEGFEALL
Sequence of GRK4 (P32298 whole entry): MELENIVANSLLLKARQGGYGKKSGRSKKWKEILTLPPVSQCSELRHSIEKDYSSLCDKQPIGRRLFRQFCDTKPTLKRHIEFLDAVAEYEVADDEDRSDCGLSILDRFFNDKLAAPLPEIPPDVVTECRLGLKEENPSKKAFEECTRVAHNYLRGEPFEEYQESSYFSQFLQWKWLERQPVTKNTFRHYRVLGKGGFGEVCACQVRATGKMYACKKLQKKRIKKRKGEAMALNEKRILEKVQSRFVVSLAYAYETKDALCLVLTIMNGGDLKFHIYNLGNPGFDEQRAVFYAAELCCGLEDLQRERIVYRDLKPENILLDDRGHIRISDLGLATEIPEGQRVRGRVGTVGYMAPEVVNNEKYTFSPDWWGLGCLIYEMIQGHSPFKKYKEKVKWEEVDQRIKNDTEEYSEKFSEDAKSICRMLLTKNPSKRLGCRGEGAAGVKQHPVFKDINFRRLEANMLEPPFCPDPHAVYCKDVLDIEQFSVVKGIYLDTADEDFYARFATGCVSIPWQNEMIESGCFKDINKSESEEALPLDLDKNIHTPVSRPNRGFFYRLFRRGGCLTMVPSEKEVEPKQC
T2 sequence (Q9H4A3 whole entry): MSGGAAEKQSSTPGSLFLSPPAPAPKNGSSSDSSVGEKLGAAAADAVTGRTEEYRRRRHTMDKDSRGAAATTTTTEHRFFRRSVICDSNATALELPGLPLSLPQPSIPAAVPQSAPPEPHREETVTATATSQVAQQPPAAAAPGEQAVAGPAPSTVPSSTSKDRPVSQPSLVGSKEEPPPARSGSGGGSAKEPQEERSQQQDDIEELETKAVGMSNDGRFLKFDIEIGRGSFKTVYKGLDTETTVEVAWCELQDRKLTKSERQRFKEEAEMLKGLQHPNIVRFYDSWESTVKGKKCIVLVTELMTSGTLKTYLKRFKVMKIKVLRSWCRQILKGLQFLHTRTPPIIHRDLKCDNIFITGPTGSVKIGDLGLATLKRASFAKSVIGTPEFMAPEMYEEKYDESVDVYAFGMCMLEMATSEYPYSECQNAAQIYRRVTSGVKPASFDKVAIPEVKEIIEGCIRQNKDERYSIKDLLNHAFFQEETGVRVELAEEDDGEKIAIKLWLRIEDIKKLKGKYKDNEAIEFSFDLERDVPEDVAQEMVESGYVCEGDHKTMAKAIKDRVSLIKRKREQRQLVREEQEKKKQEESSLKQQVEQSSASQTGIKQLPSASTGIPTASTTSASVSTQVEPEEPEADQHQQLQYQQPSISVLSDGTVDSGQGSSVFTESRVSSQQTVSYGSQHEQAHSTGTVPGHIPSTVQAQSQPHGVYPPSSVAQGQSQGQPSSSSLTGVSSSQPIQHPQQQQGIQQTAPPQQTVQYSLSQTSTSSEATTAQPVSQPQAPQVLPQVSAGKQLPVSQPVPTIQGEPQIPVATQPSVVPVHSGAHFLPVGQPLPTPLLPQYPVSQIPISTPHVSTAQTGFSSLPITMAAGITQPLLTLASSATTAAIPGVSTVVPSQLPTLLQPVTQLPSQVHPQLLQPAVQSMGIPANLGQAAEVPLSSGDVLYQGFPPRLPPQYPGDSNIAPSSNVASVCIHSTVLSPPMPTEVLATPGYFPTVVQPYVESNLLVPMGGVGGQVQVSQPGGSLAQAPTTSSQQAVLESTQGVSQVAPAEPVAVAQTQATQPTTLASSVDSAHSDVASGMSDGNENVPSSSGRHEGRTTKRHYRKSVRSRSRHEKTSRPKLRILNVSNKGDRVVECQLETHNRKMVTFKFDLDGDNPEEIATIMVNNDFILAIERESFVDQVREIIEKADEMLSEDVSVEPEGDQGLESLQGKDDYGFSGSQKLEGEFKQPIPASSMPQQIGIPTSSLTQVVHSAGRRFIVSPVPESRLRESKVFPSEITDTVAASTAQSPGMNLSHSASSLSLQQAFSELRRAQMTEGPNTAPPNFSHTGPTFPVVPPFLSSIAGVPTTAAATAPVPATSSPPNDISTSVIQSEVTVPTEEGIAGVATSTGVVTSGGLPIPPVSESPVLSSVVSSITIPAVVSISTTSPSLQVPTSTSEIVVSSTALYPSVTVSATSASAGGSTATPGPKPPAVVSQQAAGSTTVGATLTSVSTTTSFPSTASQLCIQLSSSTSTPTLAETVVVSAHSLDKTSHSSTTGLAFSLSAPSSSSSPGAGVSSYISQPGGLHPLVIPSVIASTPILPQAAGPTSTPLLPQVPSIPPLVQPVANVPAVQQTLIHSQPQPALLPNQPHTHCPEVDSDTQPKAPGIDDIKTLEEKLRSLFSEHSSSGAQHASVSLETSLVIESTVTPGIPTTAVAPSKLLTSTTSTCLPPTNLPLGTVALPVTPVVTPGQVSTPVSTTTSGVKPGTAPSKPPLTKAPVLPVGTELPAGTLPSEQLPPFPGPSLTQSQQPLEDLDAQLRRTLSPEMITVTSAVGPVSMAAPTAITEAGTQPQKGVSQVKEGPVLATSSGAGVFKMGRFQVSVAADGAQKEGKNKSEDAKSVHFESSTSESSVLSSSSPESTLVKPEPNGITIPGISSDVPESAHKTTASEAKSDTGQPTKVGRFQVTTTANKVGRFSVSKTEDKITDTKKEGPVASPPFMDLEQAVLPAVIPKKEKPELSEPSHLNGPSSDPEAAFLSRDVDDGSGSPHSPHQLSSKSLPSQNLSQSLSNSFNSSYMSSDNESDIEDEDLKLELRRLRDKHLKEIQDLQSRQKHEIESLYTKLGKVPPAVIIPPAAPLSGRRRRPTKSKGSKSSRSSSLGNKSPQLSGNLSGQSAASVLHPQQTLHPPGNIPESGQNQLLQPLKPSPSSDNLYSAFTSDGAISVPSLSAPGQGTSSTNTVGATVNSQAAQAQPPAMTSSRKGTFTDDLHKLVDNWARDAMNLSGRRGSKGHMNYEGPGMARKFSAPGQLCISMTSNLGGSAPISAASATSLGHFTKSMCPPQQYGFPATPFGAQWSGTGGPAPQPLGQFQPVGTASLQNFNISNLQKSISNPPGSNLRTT
Sequence of MEK3 (P46734 whole entry): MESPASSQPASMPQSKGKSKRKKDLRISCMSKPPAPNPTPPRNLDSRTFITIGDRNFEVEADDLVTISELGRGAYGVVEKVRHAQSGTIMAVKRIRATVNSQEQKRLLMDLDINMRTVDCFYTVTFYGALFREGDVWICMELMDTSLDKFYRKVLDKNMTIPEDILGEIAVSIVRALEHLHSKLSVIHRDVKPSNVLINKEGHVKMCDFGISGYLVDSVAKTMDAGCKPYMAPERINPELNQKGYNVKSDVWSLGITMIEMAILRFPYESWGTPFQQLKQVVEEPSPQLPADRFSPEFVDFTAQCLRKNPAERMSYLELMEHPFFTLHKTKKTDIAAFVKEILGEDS
Sequence of ERK2 (P28482 whole entry): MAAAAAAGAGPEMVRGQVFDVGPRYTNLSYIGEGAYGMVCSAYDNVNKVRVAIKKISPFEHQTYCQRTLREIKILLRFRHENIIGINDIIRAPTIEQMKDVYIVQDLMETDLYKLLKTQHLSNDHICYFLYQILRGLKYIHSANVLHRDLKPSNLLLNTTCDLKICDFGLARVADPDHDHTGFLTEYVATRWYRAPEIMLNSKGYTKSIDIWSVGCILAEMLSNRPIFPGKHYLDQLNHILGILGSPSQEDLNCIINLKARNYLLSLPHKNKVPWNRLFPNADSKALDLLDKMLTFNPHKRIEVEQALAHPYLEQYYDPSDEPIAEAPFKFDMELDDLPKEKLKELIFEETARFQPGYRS
Sequence of AURKA (O14965 whole entry): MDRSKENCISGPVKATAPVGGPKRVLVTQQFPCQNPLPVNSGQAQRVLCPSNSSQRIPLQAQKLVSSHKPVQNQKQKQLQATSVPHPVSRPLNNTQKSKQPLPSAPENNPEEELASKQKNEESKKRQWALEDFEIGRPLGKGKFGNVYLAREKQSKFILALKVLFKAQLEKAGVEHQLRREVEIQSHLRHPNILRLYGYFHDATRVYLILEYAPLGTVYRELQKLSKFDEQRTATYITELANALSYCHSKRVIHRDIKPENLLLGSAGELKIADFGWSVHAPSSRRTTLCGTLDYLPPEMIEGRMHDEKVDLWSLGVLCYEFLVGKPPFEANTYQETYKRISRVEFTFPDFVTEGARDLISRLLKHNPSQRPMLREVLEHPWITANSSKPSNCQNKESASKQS

Nc1ncc(-c2nc3ccccc3o2)c(-c2ccncc2)n1 [Comparative Compound 324, 5-(1,3-benzoxazol-2-yl)-4-(pyridine-4-yl)pyrimidin-2-amine]
remaining binding at 10 µM (MEK3): 80%
remaining binding at 10 µM (CSNK1G2): 72%
remaining binding at 10 µM (TRKC): 81%
remaining binding at 10 µM [1]: 100%
remaining binding at 10 µM (ERBB3): 92%
remaining binding at 10 µM (PRKCI): 65%
remaining binding at 10 µM (ERK2): 99%
remaining binding at 10 µM (ADCK3): 88%
remaining binding at 10 µM (CIT): 73%
remaining binding at 10 µM (PRKCD): 86%
remaining binding at 10 µM (HPK1): 86%
remaining binding at 10 µM (JNK1): 52%
remaining binding at 10 µM (SgK110): 94%
remaining binding at 10 µM (PAK1): 75%
remaining binding at 10 µM [2]: 88%
remaining binding at 10 µM (YSK1): 84%
remaining binding at 10 µM (CAMK2B): 100%
remaining binding at 10 µM (ALK (C1156Y)): 100%
remaining binding at 10 µM (DYRK1A): 87%
AUCex ([3]; IV 3 mg/kg): 1.9%
AUC(0-t) [3, 4]: 315 ng·h/mL
AUC(0-t) [3, 5]: 304 ng·h/mL
AUC(0-t) [3, 6]: 11.1 ng·h/mL
AUC(0-t) [3, 7]: 8.66 ng·h/mL
AUC(0-t) [3, 8]: 1590 ng·h/mL
AUC(0-t) [3, 9]: 1210 ng·h/mL
bioavailability ([3]; PO 3 mg/kg, male CD-1 mice): 3%
bioavailability ([3]; PO 30 mg/kg, male CD-1 mice): 40%
Cmax ([3]; IV 3 mg/kg, male CD-1 mice): 1150 ng/mL
Tmax ([3]; IV 3 mg/kg, male CD-1 mice): 4.98 min
half-life ([3]; IV 3 mg/kg, male CD-1 mice): 5.46 min
AUC(0-inf) ([3]; IV 3 mg/kg, male CD-1 mice): 309 ng·h/mL
clearance ([3]; IV 3 mg/kg, male CD-1 mice): 162 mL/min/kg
Vd ([3]; IV 3 mg/kg, male CD-1 mice): 1.27 L/kg
Cmax ([3]; PO 3 mg/kg, male CD-1 mice): 14 ng/mL
Tmax ([3]; PO 3 mg/kg, male CD-1 mice): 15 min
Cmax ([3]; PO 30 mg/kg, male CD-1 mice): 666 ng/mL
Tmax ([3]; PO 30 mg/kg, male CD-1 mice): 30 min
remaining binding at 10 µM (FLT3): 100%
remaining binding at 10 µM (AURKA): 99%
remaining binding at 10 µM (CSNK1D): 3.8%
remaining binding at 10 µM (GRK4): 100%
remaining binding at 10 µM (KIT (V559D, V654A)): 79%
remaining binding at 10 µM (WNK1): 81%
remaining binding at 10 µM (CLK1): 80%
remaining binding at 10 µM (NEK3): 69%
remaining binding at 10 µM (FYN): 60%

CNc1c(C(N)=O)c2ccccn2c1C(=O)c1ccc(F)cc1 [Compound A, 2-methyl-amino-3-[(4-fluorophenyl)carbonyl]indolizine-1-carboxamide]
remaining binding at 10 µM (MEK3): 60%
remaining binding at 10 µM (CSNK1G2): 99%
remaining binding at 10 µM (TRKC): 75%
remaining binding at 10 µM [1]: 88%
remaining binding at 10 µM (ERBB3): 62%
remaining binding at 10 µM (PRKCI): 69%
remaining binding at 10 µM (ERK2): 78%
remaining binding at 10 µM (ADCK3): 91%
remaining binding at 10 µM (CIT): 58%
remaining binding at 10 µM (PRKCD): 93%
remaining binding at 10 µM (HPK1): 82%
remaining binding at 10 µM (JNK1): 45%
remaining binding at 10 µM (SgK110): 92%
remaining binding at 10 µM (PAK1): 71%
remaining binding at 10 µM [2]: 73%
remaining binding at 10 µM (YSK1): 64%
remaining binding at 10 µM (CAMK2B): 62%
remaining binding at 10 µM (ALK (C1156Y)): 98%
remaining binding at 10 µM (DYRK1A): 74%
AUCex ([3]; IV 3 mg/kg): 0.1%
AUCex ([3]; PO 3 mg/kg): 6.3%
AUCex ([3]; PO 30 mg/kg): 18.5%
clearance after administration ([3]; male CD-1 mice, 24 hours after administration): completely cleared after 24 hours
AUC(0-t) [3, 4]: 502 ng·h/mL
AUC(0-t) [3, 5]: 498 ng·h/mL
AUC(0-t) [3, 6]: 35.4 ng·h/mL
AUC(0-t) [3, 7]: 32.4 ng·h/mL
AUC(0-t) [3, 8]: 659 ng·h/mL
AUC(0-t) [3, 9]: 470 ng·h/mL
bioavailability ([3]; PO 3 mg/kg, male CD-1 mice): 7%
bioavailability ([3]; PO 30 mg/kg, male CD-1 mice): 9%
Cmax ([3]; IV 3 mg/kg, male CD-1 mice): 1680 ng/mL
Tmax ([3]; IV 3 mg/kg, male CD-1 mice): 4.98 min
half-life ([3]; IV 3 mg/kg, male CD-1 mice): 13.8 min
AUC(0-inf) ([3]; IV 3 mg/kg, male CD-1 mice): 499 ng·h/mL
clearance ([3]; IV 3 mg/kg, male CD-1 mice): 100 mL/min/kg
Vd ([3]; IV 3 mg/kg, male CD-1 mice): 2 L/kg
Cmax ([3]; PO 3 mg/kg, male CD-1 mice): 47 ng/mL
Tmax ([3]; PO 3 mg/kg, male CD-1 mice): 15 min
half-life ([3]; PO 3 mg/kg, male CD-1 mice): 29.4 min
AUC(0-inf) ([3]; PO 3 mg/kg, male CD-1 mice): 34.6 ng·h/mL
CL/F ([3]; PO 3 mg/kg, male CD-1 mice): 1450 mL/min/kg
Vd/F ([3]; PO 3 mg/kg, male CD-1 mice): 61.4 L/kg
Cmax ([3]; PO 30 mg/kg, male CD-1 mice): 237 ng/mL
Tmax ([3]; PO 30 mg/kg, male CD-1 mice): 30 min
half-life ([3]; PO 30 mg/kg, male CD-1 mice): 210 min
AUC(0-inf) ([3]; PO 30 mg/kg, male CD-1 mice): 576 ng·h/mL
CL/F ([3]; PO 30 mg/kg, male CD-1 mice): 868 mL/min/kg
Vd/F ([3]; PO 30 mg/kg, male CD-1 mice): 264 L/kg
remaining binding at 10 µM (FLT3): 96%
remaining binding at 10 µM (AURKA): 91%
remaining binding at 10 µM (CSNK1D): 1.4%
remaining binding at 10 µM (GRK4): 97%
remaining binding at 10 µM (KIT (V559D, V654A)): 16%
remaining binding at 10 µM (WNK1): 69%
remaining binding at 10 µM (CLK1): 67%
remaining binding at 10 µM (NEK3): 66%
remaining binding at 10 µM (FYN): 33%
